The text below walks through data of patent US12209079B2 (GENERAL INCORPORATED ASSOCIATION PHARMA VALLEY PROJECT …, priority 2017, dated 2025).

SMILES strings stand for the structures.

For assay [1], the system named is subcutaneous CT-26WT syngeneic graft of large intestine cancer. Kind of assay: Drug efficacy test, combined use of compound 1, 15 or 29 and oxaliplatin, mice with subcutaneous CT-26WT syngeneic graft (Test Example 4). It is filed as in vivo, mouse. As to conditions: 40 mg/kg oral twice a day, combined with oxaliplatin 10 mg/kg i.v.; Balb/c mice; FIG. 3. The method, then:
Drug Efficacy Test on Combined Use of Compound 1, Compound 15 or Compound 29 and Oxaliplatin Using Mice with Subcutaneous CT-26WT Syngeneic Graft of Large Intestine Cancer
5×10^5 cells of syngeneic large intestine cancer cell line CT26WT were subcutaneously transplanted to each of 6-week-old female Balb/c mice. The mice were divided into 5 groups each involving 6 individuals 10 days later when the average tumor size was 139 mm^3. The oral administration (solvent for oral administration and 40 mg/kg each of compound 1, compound 15 and compound 29 were administered twice a day at a 5-hour interval from days 1 to 5 and days 8 to 12) and intravenous injection (5% glucose solution and 10 mg/kg oxaliplatin were administered once a day on days 1 and 8) of each agent were started. Then, the major axis and minor axis of subcutaneous tumor were measured three times a week using calipers, and a mean and standard error of the mean of the ratios of the calculated volumes to the volumes at the administration start day in each group were plotted. The calculation expression was Volume (mm^3)=[Width^2 (mm^2)×Length (mm)]/2. The solvent group, compound 1 and compound 15 were each dissolved in a solvent for oral administration of DMSO:PEG400:PBS=10:40:150, and compound 29 was dissolved in a solvent for oral administration of DMSO:PEG400:PBS=20:80:50.
∘: the solvent for oral administration and the 5% glucose solution, •: the solvent for oral administration and oxaliplatin, ▴: compound 1 and oxaliplatin, ▪: compound 15 and oxaliplatin, and x: compound 29 and oxaliplatin.

The test system is the same in assay [2]. As to the kind of experiment: Drug efficacy test, combined use of IDO/TDO inhibitor and oxaliplatin, mice with subcutaneous CT-26WT syngeneic graft (Test Example 5). It is filed as in vivo, mouse. The following applies: 40 mg/kg oral twice a day in 0.5% methyl cellulose, combined with oxaliplatin 10 mg/kg i.v.; Balb/c mice; FIG. 4. As to the method:
Drug Efficacy Test on Combined Use of IDO/TDO Inhibitor and Oxaliplatin Using Mice with a Subcutaneous CT-26WT Syngeneic Graft of Large Intestine Cancer
5×10^5 cells of syngeneic large intestine cancer cell line CT26WT were subcutaneously transplanted to each of 6-week-old female Balb/c mice. The mice were divided into groups each involving 6 individuals 10 days later within a tumor size range of 41-427 mm^3. The oral administration (solvent for oral administration and 40 mg/kg each of epacadostat and compounds 37, 31, 7, 15, 1, 50, 52, 76, 95, 33, 49, 2, 10, 36, 103, 38 and 29 were administered twice a day at a 5-hour interval from days 1 to 5 and days 8 to 12) and intravenous injection (5% glucose solution and 10 mg/kg oxaliplatin were administered once a day on days 1 and 8) of each agent were started. Then, the major axis and minor axis of subcutaneous tumor were measured three times a week using calipers, and a mean and standard error of the mean of the ratios of the calculated volumes to the volumes at the administration start day in each group were plotted. The calculation expression was Volume (mm^3)=[[…]×Length (mm)]/2. The agent for oral administration was suspended in 0.5% methyl cellulose as a solvent for oral administration. The results are shown in FIG. 4 (if a plurality of experiments were conducted for the same agent, the results were combined).
• with the solid line: the solvent for oral administration and the 5% glucose solution, ▪ with the solid line: compound 37 and oxaliplatin, ▴ with the solid line: epacadostat and oxaliplatin, X with the solid line: compound 31 and oxaliplatin, ∘ with the solid line: the solvent for oral administration and oxaliplatin, □ with the solid line: compound 7 and oxaliplatin, Δ with the solid line: compound 15 and oxaliplatin, X with the solid line: compound 1 and oxaliplatin, • with the broken line: compound 50 and oxaliplatin, ▪ with the broken line: compound 52 and oxaliplatin, ▴ with the broken line: compound 76 and oxaliplatin, X with the broken line: compound 95 and oxaliplatin, ∘ with the broken line: compound 33 and oxaliplatin, □ with the broken line: compound 49 and oxaliplatin, Δ with the broken line: compound 2 and oxaliplatin, + with the solid line: compound 10 and oxaliplatin, rectangle with the solid line: compound 36 and oxaliplatin, • with the dotted line: compound 103 and oxaliplatin, ▪ with the dotted line: compound 38 and oxaliplatin, and ▴ with the dotted line: compound 29 and oxaliplatin.

Assay [3] has as its target rhTDO (recombinant human TDO) (Homo sapiens, UniProt P48775). Kind of assay: Enzyme assay using rhTDO (rate of kynurenine production). The class given is biochemical. As to conditions: 2 h; final concentration of the compound 10 μM; rate relative to reaction without compound; read-out: rhTDO-mediated kynurenine production. The gist of the method:
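Kynurenine output, as percent of untreated control after background subtraction, read at 490 nm with p-dimethylbenzaldehyde following TCA quench and 15 min heating at 50 °C. Reaction: rhTDO with compound, 10 min preincubation then 120 min at 37 °C, started by 20 mM tryptophan stock, in phosphate/ascorbate/methylene blue/catalase.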

Chain of rhTDO (recombinant human TDO) (P48775 whole entry): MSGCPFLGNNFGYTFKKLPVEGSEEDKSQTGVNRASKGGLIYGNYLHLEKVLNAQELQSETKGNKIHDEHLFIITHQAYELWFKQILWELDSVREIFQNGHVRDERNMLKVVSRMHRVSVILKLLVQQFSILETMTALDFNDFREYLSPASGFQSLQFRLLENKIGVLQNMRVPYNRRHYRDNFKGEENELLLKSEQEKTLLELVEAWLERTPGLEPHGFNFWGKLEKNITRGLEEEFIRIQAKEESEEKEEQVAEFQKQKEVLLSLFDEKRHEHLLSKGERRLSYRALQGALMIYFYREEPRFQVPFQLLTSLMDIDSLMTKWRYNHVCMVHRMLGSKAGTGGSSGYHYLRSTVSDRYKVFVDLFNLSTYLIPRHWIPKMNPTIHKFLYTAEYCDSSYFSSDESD

Take `Cl.Cl.N=C(N)SCc1ccccc1CSC(=N)N` [Compound 1, 1,2-phenylenebis(methylene) dicarbamimidothioate dihydrochloride]: the “tumor growth (ratio of tumor volume to start day)” value in assay [1] and in assay [2] was “can suppress tumor growth” in each case. For the same compound, in assay [3], the remaining activity at 10 µM amounted to 13%.

`Br.Br.N=C(N)SCc1ccc(F)cc1CSC(=N)N` [Compound 2, (4-fluoro-1,2-phenylene)bis(methylene) dicarbamimidothioate dihydrobromide]: the “tumor growth (ratio of tumor volume to start day)” value in assay [2] was “can suppress tumor growth”. Moreover, the remaining activity at 10 µM in assay [3] is 6%.

Turning to `Br.Br.N=C(N)SCc1ccc(Cl)cc1CSC(=N)N` [Compound 7, (4-chloro-1,2-phenylene)bis(methylene) dicarbamimidothioate dihydrobromide], the “tumor growth (ratio of tumor volume to start day)” value in assay [2] was “can suppress tumor growth”. The remaining activity at 10 µM in assay [3] was 3%.

In the case of `Br.Br.N=C(N)SCc1ccc(Br)cc1CSC(=N)N` [Compound 10, (4-bromo-1,2-phenylene)bis(methylene) dicarbamimidothioate dihydrobromide], the “tumor growth (ratio of tumor volume to start day)” value in assay [2] is given as “can suppress tumor growth”. For the same compound, the remaining activity at 10 µM in assay [3] was found to be 3%.

For the compound `Br.Br.N=C(N)SCc1cscc1CSC(=N)N` [Compound 15, thiophene-3,4-diylbis(methylene) dicarbamimidothioate dihydrobromide], the “tumor growth (ratio of tumor volume to start day)” value in assay [1] and in assay [2] was “can suppress tumor growth” each time. Further, the remaining activity at 10 µM in assay [3] turned out to be 12%.

As for `c1ccc(CSC2=NCN(CC3CCCCC3)CN2)c(CSC2=NCN(CC3CCCCC3)CN2)c1` [Compound 29, 1,2-bis(((5-(cyclohexylmethyl)-1,4,5,6-tetrahydro-1,3,5-triazin-2-yl)thio)methyl)benzene], the “tumor growth (ratio of tumor volume to start day)” value in assay [1] and in assay [2] was “can suppress tumor growth” throughout. Besides, the remaining activity at 10 µM in assay [3] amounted to 15%.

`Br.Br.N=C(N)SCc1ccsc1CSC(=N)N` [Compound 31, thiophene-2,3-diylbis(methylene) dicarbamimidothioate dihydrobromide]: the “tumor growth (ratio of tumor volume to start day)” value in assay [2] was “can suppress tumor growth”. The remaining activity at 10 µM in assay [3] was 17%.

For `Cl.Cl.c1ccc(CCN2CN=C(SCc3cscc3CSC3=NCN(CCc4ccccc4)CN3)NC2)cc1` [Compound 33, 3,4-Bis{[(5-phenethyl-1,4,5,6-tetrahydro-1,3,5-triazin-2-yl)thio]methyl}thiophene dihydrochloride], the “tumor growth (ratio of tumor volume to start day)” value in assay [2] is reported as “can suppress tumor growth”. Moreover, in assay [3], the remaining activity at 10 µM stood at 21%.

With `Clc1cc(CSC2=NCN(CCc3ccccc3)CN2)c(CSC2=NCN(CCc3ccccc3)CN2)cc1Cl` [Compound 37, 6,6′-(((4,5-Dichloro-1,2-phenylene)bis(methylene))bis(sulfanediyl))bis(3-phenethyl-1,2,3,4-tetrahydro-1,3,5-triazine)], in assay [2], the “tumor growth (ratio of tumor volume to start day)” value is listed as “can suppress tumor growth”. Further, the remaining activity at 10 µM in assay [3] is < 7%.

Consider `N/C(=N\c1ccc(Br)cc1)SCc1ccc(Br)cc1CS/C(N)=N/c1ccc(Br)cc1` [Compound 49, (4-Bromo-1,2-phenylene)bis(methylene) (E,E)-bis(N′-(4-bromophenyl)carbamimidothioate)], for which the “tumor growth (ratio of tumor volume to start day)” value in assay [2] is “can suppress tumor growth”. For the same compound, the remaining activity at 10 µM in assay [3] amounted to 15%.

Take `Clc1cc(CSC2=NCN(CC3CCCCC3)CN2)c(CSC2=NCN(CC3CCCCC3)CN2)cc1Cl` [Compound 50, 6,6′-(((4,5-Dichloro-1,2-phenylene)bis(methylene))bis(sulfanediyl))bis(3-(cyclohexylmethyl)-1,2,3,4-tetrahydro-1,3,5-triazine)]: in assay [2], the “tumor growth (ratio of tumor volume to start day)” value is “can suppress tumor growth”. Moreover, the remaining activity at 10 µM in assay [3] worked out at 4%.

Regarding `Brc1ccc(CSC2=NCN(CC3CCCCC3)CN2)c(CSC2=NCN(CC3CCCCC3)CN2)c1` [Compound 52, 6,6′-(((4-Bromo-1,2-phenylene)bis(methylene))bis(sulfanediyl))bis(3-(cyclohexylmethyl)-1,2,3,4-tetrahydro-1,3,5-triazine)], the “tumor growth (ratio of tumor volume to start day)” value in assay [2] was “can suppress tumor growth”. Also, in assay [3], the remaining activity at 10 µM is 5%.

As to `Br.N#Cc1ccc(CNC(=O)c2ccc(Br)cc2CSC(=N)N)cc1` [Compound 76, 5-Bromo-2-((4-cyanobenzyl)carbamoyl)benzyl carbamimidothioate hydrobromide], the “tumor growth (ratio of tumor volume to start day)” value in assay [2] is “can suppress tumor growth”. The remaining activity at 10 µM in assay [3] worked out at 15%.

Take `Br.Br.N/C(=N\c1ccc(F)cc1F)SCc1ccccc1CS/C(N)=N/c1ccc(F)cc1F` [Compound 95, 1,2-Phenylenebis(methylene) (E,E)-bis(N-(2,4-difluorophenyl)carbamimidothioate)dihydrobromide]: in assay [2], the “tumor growth (ratio of tumor volume to start day)” value is reported as “can suppress tumor growth”. The remaining activity at 10 µM in assay [3] came to 6%.

`Br.N#Cc1ccc(CNC(=O)c2cc(Br)ccc2CSC(=N)N)cc1` [Compound 103, 4-Bromo-2-((4-cyanobenzyl)carbamoyl)benzyl carbamimidothioate hydrobromide]: the “tumor growth (ratio of tumor volume to start day)” value in assay [2] is “can suppress tumor growth”. For the same compound, the remaining activity at 10 µM in assay [3] was determined as 22%.
